Like-named read-outs stand apart in the source and are kept apart here. *1 amine or outer side, *2 acyl side, *3 side chain or, on linkers, in order; H or OH if unused. Where a SMILES comes first, the peptide text is derived from it. Side-chain parts run from the residue outwards. [ ]: non-standard residue; d: D form. The star is where a group is joined. C20 diacid = O=C(O)CCCCCCCCCCCCCCCCCCC(=O)*; γGlu = O=C(O)[C@H](CCC(=O)[*:2])N[*:1]; AEEA = NCCOCCOCC(=O)O; Aib = CC(C)(N)C(=O)O
Tests used:
[1] = Chemical stability (RP-HPLC normalized purity after incubation at 40° C.); format: physicochemical; conditions: pH 7, 40° C., 14-day incubation, 0.2 mg/ml, normalized purity (area-%)
Description: Samples of each test peptide were dissolved in MILLIQ™ water, and the pH of the solution was adjusted to pH 6, 7, 7.5 or 9 using either HCl or NaOH. The final peptide concentration was 0.2 mg/ml. Samples were placed in glass vials and incubated at 40° C. The samples were analyzed by RP-HPLC on a C18 column with gradient elution using an acetonitrile/TFA/water eluent system. The area-percentage (area-%) of the main peak after incubation time T=t (relative to time T=0) was determined by UV spectroscopy at 220 nm.
The purity was first determined as follows: Purity(area-%)=(area of main peak/total area of all peaks)×100.
The purity was then normalized between time points by setting purity at time 0 (T=0) to 100 for each pH value for a given peptide, as follows: Normalized area-% at time t(T=t)=[area-%(T=t)/area-%(T=0)]×100.
The chemical stability assessment results after 14-day incubation (in the form of normalized purity values) are summarized in Table 4.

[2] = Solubility assessment (turbidity absorbance at 325 nm); format: physicochemical
Description: A stock solution of the test peptide (2 mg/ml; determined from the weighed amount of peptide) in demineralized water adjusted to pH 2.5 with HCl was prepared, and aliquots were diluted 1:1 in 100 mM acetate buffer (pH 4.0 and pH 5.0), 100 mM histidine buffer (pH 6.0 and pH 7.0) and 100 mM phosphate buffer (pH 6.0, pH 7.0 and pH 7.5), respectively, and loaded in a standard flat-bottom, non-sterile 96-well UV Microplate. The absorbance of samples (single samples, n=1) at 280 and 325 nm was measured in an absorbance-based plate reader, which was preheated to ambient temperature (typically 25° C.).

[3] = 100 mM acetate buffer pH 4.0, ambient temperature, read-out: Solubility Acetate buffer pH 4
[4] = 100 mM acetate buffer pH 5.0, ambient temperature, read-out: Solubility Acetate buffer pH 5
[5] = 100 mM histidine buffer pH 6.0, ambient temperature, read-out: Solubility Histidine buffer pH 6
[6] = 100 mM histidine buffer pH 7.0, ambient temperature, read-out: Solubility Histidine buffer pH 7
[7] = 100 mM phosphate buffer pH 6.0, ambient temperature, read-out: Solubility Phosphate buffer pH 6
[8] = 100 mM phosphate buffer pH 7.0, ambient temperature, read-out: Solubility Phosphate buffer pH 7
[9] = 100 mM phosphate buffer pH 7.5, ambient temperature, read-out: Solubility Phosphate buffer pH 7.5

Structure (SMILES)	pH 7 normalized stability [1]	solubility [2, 3] [mg/mL]	solubility [2, 4] [mg/mL]	solubility [2, 5] [mg/mL]	solubility [2, 6] [mg/mL]	solubility [2, 7] [mg/mL]	solubility [2, 8] [mg/mL]	solubility [2, 9] [mg/mL]
CC[C@H](C)[C@H](NC(=O)[C@H](Cc1ccccc1)NC(=O)[C@H](CC(=O)O)NC(=O)[C@H](CCCCNC(=O)COCCOCCNC(=O)COCCOCCNC(=O)[C@H](CCCCN)NC(=O)[C@H](CCC(=O)O)NC(=O)[C@H](CCCCN)NC(=O)CC[C@H](NC(=O)CCCCCCCCCCCCCCCCCCC(=O)O)C(=O)O)NC(=O)[C@H](C)NC(=O)[C@H](C)NC(=O)[C@H](CCC(N)=O)NC(=O)[C@H](CCC(=O)O)NC(=O)[C@H](CC(=O)O)NC(=O)[C@H](CC(C)C)NC(=O)[C@@H](NC(=O)[C@@H](NC(=O)[C@H](C)NC(=O)[C@H](CC(C)C)NC(=O)[C@H](CCC(=O)O)NC(=O)[C@H](CO)NC(=O)[C@@H](NC(=O)[C@H](Cc1ccccc1)NC(=O)[C@@H](NC(=O)CNC(=O)[C@H](CCC(=O)O)NC(=O)C(C)(C)NC(=O)[C@@H](N)Cc1c[nH]cn1)[C@@H](C)O)[C@@H](C)O)[C@@H](C)O)[C@@H](C)CC)C(=O)N[C@@H](C)C(=O)N[C@@H](Cc1c[nH]c2ccccc12)C(=O)N[C@@H](CC(C)C)C(=O)N[C@H](C(=O)N[C@@H](CCC(=O)O)C(=O)N[C@@H](Cc1c[nH]cn1)C(=O)N[C@@H](CCCCN)C(=O)N[C@H](C(=O)N[C@H](C(=O)N[C@@H](CC(=O)O)C(=O)O)[C@@H](C)O)[C@@H](C)CC)[C@@H](C)CC [Compound 67] (H-H[Aib]EGTFTSELATILDEQAAK([AEEA-AEEA-Lys-Glu-Lys-γGlu-C20 diacid])DFIAWLIEHKITD-OH)	A (>90% normalised stability)							
CC[C@H](C)[C@H](NC(=O)[C@H](Cc1ccccc1)NC(=O)[C@H](CC(=O)O)NC(=O)[C@H](CCCCNC(=O)COCCOCCNC(=O)[C@H](CCCCN)NC(=O)[C@H](CCC(=O)O)NC(=O)[C@H](CCCCN)NC(=O)CC[C@H](NC(=O)CCCCCCCCCCCCCCCCCCC(=O)O)C(=O)O)NC(=O)[C@H](C)NC(=O)[C@H](C)NC(=O)[C@H](CCCCN)NC(=O)[C@H](C)NC(=O)[C@H](CC(=O)O)NC(=O)[C@H](CC(C)C)NC(=O)[C@@H](NC(=O)[C@@H](NC(=O)[C@H](C)NC(=O)[C@H](CC(C)C)NC(=O)[C@H](CCC(=O)O)NC(=O)[C@H](CO)NC(=O)[C@@H](NC(=O)[C@H](Cc1ccccc1)NC(=O)[C@H](CO)NC(=O)CNC(=O)[C@H](CCC(=O)O)NC(=O)C(C)(C)NC(=O)[C@@H](N)Cc1c[nH]cn1)[C@@H](C)O)[C@@H](C)O)[C@@H](C)CC)C(=O)N[C@@H](C)C(=O)N[C@@H](Cc1c[nH]c2ccccc12)C(=O)N[C@@H](CC(C)C)C(=O)N[C@H](C(=O)N[C@@H](CCC(=O)O)C(=O)N[C@@H](Cc1c[nH]cn1)C(=O)N[C@@H](CCCCN)C(=O)N[C@H](C(=O)N[C@H](C(=O)N[C@@H](CC(=O)O)C(=O)O)[C@@H](C)O)[C@@H](C)CC)[C@@H](C)CC [Compound 68] (HELM PEPTIDE1{H.[Aib].E.G.S.F.T.S.E.L.A.T.I.L.D.A.K.A.A.K.D.F.I.A.W.L.I.E.H.K.I.T.D}|PEPTIDE2{[O=C(O)CCCCCCCCCCCCCCCCCCC(=O)[*:2]].[gGlu].K.E.K.[O=C(COCCOCCN[*:1])[*:2]]}$PEPTIDE1,PEPTIDE2,20:R3-6:R2$$$V2.0)	A (>90% normalised stability)							
CC[C@H](C)[C@H](NC(=O)[C@H](Cc1ccccc1)NC(=O)[C@H](CC(=O)O)NC(=O)[C@H](CCCNC(=N)N)NC(=O)[C@H](C)NC(=O)[C@H](C)NC(=O)[C@H](CCC(N)=O)NC(=O)[C@H](CCCCNC(=O)CC[C@H](NC(=O)CCCCCCCCCCCCCCCCC(=O)O)C(=O)O)NC(=O)[C@H](CC(=O)O)NC(=O)[C@H](CC(C)C)NC(=O)[C@@H](NC(=O)[C@@H](NC(=O)[C@H](C)NC(=O)[C@H](CC(C)C)NC(=O)[C@H](CCC(=O)O)NC(=O)[C@H](CO)NC(=O)[C@H](CO)NC(=O)[C@H](Cc1ccccc1)NC(=O)[C@@H](NC(=O)CNC(=O)[C@H](CCC(=O)O)NC(=O)C(C)(C)NC(=O)[C@@H](N)Cc1c[nH]cn1)[C@@H](C)O)[C@@H](C)O)[C@@H](C)CC)C(=O)N[C@@H](C)C(=O)N[C@@H](Cc1c[nH]c2ccccc12)C(=O)N[C@@H](CC(C)C)C(=O)N[C@H](C(=O)N[C@@H](CCC(=O)O)C(=O)N[C@@H](Cc1c[nH]cn1)C(=O)N[C@@H](CCCCN)C(=O)N[C@H](C(=O)N[C@H](C(=O)N[C@@H](CC(=O)O)C(=O)O)[C@@H](C)O)[C@@H](C)CC)[C@@H](C)CC [Compound 20] (HELM PEPTIDE1{H.[Aib].E.G.T.F.S.S.E.L.A.T.I.L.D.K.Q.A.A.R.D.F.I.A.W.L.I.E.H.K.I.T.D}|PEPTIDE2{[O=C(O)CCCCCCCCCCCCCCCCC(=O)[*:2]].[gGlu]}$PEPTIDE1,PEPTIDE2,16:R3-2:R2$$$V2.0)		< 1	< 1	≥ 1	≥ 1	≥ 1	≥ 1	≥ 1
CC[C@H](C)[C@H](NC(=O)[C@H](Cc1ccccc1)NC(=O)[C@H](CC(=O)O)NC(=O)[C@H](CCCNC(=N)N)NC(=O)[C@H](C)NC(=O)[C@H](C)NC(=O)[C@H](CCC(N)=O)NC(=O)[C@H](CCCCNC(=O)CC[C@H](NC(=O)CCCCCCCCCCCCCCCCC(=O)O)C(=O)O)NC(=O)[C@H](CC(=O)O)NC(=O)[C@H](CC(C)C)NC(=O)[C@@H](NC(=O)[C@@H](NC(=O)[C@H](C)NC(=O)[C@H](CC(C)C)NC(=O)[C@H](CCC(=O)O)NC(=O)[C@H](CO)NC(=O)[C@@H](NC(=O)[C@H](Cc1ccccc1)NC(=O)[C@H](CO)NC(=O)CNC(=O)[C@H](CCC(=O)O)NC(=O)C(C)(C)NC(=O)[C@@H](N)Cc1c[nH]cn1)[C@@H](C)O)[C@@H](C)O)[C@@H](C)CC)C(=O)N[C@@H](C)C(=O)N[C@@H](Cc1c[nH]c2ccccc12)C(=O)N[C@@H](CC(C)C)C(=O)N[C@H](C(=O)N[C@@H](Cc1ccc(O)cc1)C(=O)N[C@@H](Cc1c[nH]cn1)C(=O)N[C@@H](CCCCN)C(=O)N[C@H](C(=O)N[C@H](C(=O)N[C@@H](CC(=O)O)C(=O)O)[C@@H](C)O)[C@@H](C)CC)[C@@H](C)CC [Compound 27] (HELM PEPTIDE1{H.[Aib].E.G.S.F.T.S.E.L.A.T.I.L.D.K.Q.A.A.R.D.F.I.A.W.L.I.Y.H.K.I.T.D}|PEPTIDE2{[O=C(O)CCCCCCCCCCCCCCCCC(=O)[*:2]].[gGlu]}$PEPTIDE1,PEPTIDE2,16:R3-2:R2$$$V2.0)		< 1	< 1	≥ 1	≥ 1	≥ 1	≥ 1	≥ 1
CC[C@H](C)[C@H](NC(=O)[C@H](Cc1ccccc1)NC(=O)[C@H](CC(=O)O)NC(=O)[C@H](CCCNC(=N)N)NC(=O)[C@H](C)NC(=O)[C@H](C)NC(=O)[C@H](CC(C)C)NC(=O)[C@H](CC(N)=O)NC(=O)[C@H](CC(=O)O)NC(=O)[C@H](CC(C)C)NC(=O)[C@@H](NC(=O)[C@@H](NC(=O)[C@H](CC(N)=O)NC(=O)[C@H](CCSC)NC(=O)[C@H](CCC(=O)O)NC(=O)[C@H](CC(=O)O)NC(=O)[C@H](CO)NC(=O)[C@H](Cc1ccccc1)NC(=O)[C@H](CO)NC(=O)CNC(=O)[C@H](CC(=O)O)NC(=O)CNC(=O)[C@@H](N)Cc1c[nH]cn1)[C@@H](C)O)[C@@H](C)CC)C(=O)N[C@@H](CC(N)=O)C(=O)N[C@@H](Cc1c[nH]c2ccccc12)C(=O)N[C@@H](CC(C)C)C(=O)N[C@H](C(=O)N[C@@H](CCC(N)=O)C(=O)N[C@H](C(=O)N[C@@H](CCCCN)C(=O)N[C@H](C(=O)N[C@H](C(=O)N[C@@H](CC(=O)O)C(=O)O)[C@@H](C)O)[C@@H](C)CC)[C@@H](C)O)[C@@H](C)CC [Teduglutide, [Gly2]-hGLP-2 (1-33), reference compound]		< 1	< 1	< 1	≥ 1	< 1	< 1	≥ 1

— US11395847B2, “Acylated GLP-1/GLP-2 dual agonists” (Zealand Pharma A/S, priority 2016, dated 2022)
